According to patent publication US7659299B2, “Compounds inhibiting the binding of sap for treating osteoarthritis” (Pentraxin Therapeutics Limited, priority 2003, dated 2010):

Legend:
Design in all cases: 5 μl of radiolabelled SAP in TN; from tissue
[1] = biological target: T1, SAP (Homo sapiens, UniProt P02743); experiment: Inhibition of binding of 125I radiolabelled SAP to Neisseria meningitidis immobilized in microtitre plates; settings: for inhibition at 0.2 µM / inhibition at 20 µM / inhibition at 200 µM / inhibition at 2000 µM / inhibition at 2 µM: read-out: Percent inhibition of binding of radiolabelled SAP to immobilized Neisseria meningitidis
T1 sequence (P02743 20-223): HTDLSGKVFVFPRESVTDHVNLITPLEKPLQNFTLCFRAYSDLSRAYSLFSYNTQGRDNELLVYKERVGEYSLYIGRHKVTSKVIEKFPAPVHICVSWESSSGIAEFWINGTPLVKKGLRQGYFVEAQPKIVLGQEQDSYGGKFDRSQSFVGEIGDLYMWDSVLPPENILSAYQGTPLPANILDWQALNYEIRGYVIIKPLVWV
Protocol: A suspension of heat killed Neisseria meningitidis at 1×10^8 organisms per ml in PBS was dispensed to polystyrene microtitre plates at 50 μl volumes per well, and left overnight at 4° C. All wells were then washed three times with 200 μl volumes of PBS containing 0.05% v/v Tween 20, prior to equilibration for 2 min with 0.01M Tris buffered 0.14M NaCl/0.002M CaCl2 at pH 8.0 (TC buffer), containing 4% w/v BSA and 0.05%/v Tween 20 (TCBT buffer). The wells were then emptied before adding to each one the following reagents. […] For background, non-specific, non calcium dependent, binding in the presence of EDTA: 5 μl radiolabelled SAP in TN and 45 μl 0.01M Tris buffered 0.14M NaCl at pH 8.0 containing 11.1 mM EDTA, 4.4% w/v BSA and 0.06% w/v Tween 20 (TEBT buffer) to provide final concentrations of EDTA, 10 mM; BSA, 4%; Tween 20, 0.05%. […] All wells were then incubated at room temperature for 2 h before being washed three times with 200 μl volumes of TCBT, allowed to dry for 1 h at room temperature, and bound radiolabelled SAP was then counted.
The capacity of the compounds tested to inhibit binding of SAP to meningococci is expressed as the percentage by which SAP binding was reduced compared to binding in the absence of any inhibitor (Table 1).

[2] = biological target: T1, SAP; experiment: Inhibition of binding of 125I radiolabelled SAP to native long chromatin immobilized in microtitre plates; settings: for inhibition at 0.2 µM / inhibition at 2 µM / inhibition at 20 µM / inhibition at 200 µM / inhibition at 2000 µM: read-out: Percent inhibition of binding of radiolabelled SAP to immobilized native long chromatin
[3] = biological target: T1, SAP; experiment: Inhibition of binding of 125I radiolabelled SAP to influenza virus immobilized in microtitre plates; settings: for inhibition at 0.2 µM / inhibition at 2 µM / inhibition at 20 µM / inhibition at 200 µM / inhibition at 2000 µM: read-out: Percent inhibition of binding of radiolabelled SAP to immobilized influenza virus
Protocol: A concentrated suspension of purified influenza virus A/Shanghai/24/90 at 10 mg protein per ml in PBS was diluted 1:50 in PBS and then dispensed to polystyrene microtitre plates at 50 μl volumes per well, and left overnight at 4° C. All wells were then emptied before blocking by addition to each well of 200 μl of 2% w/v BSA in PBS and incubation at room temperature for 1 h. All wells were then washed three times with 200 μl volumes of PBS containing 0.05% v/v Tween 20, prior to equilibration for 2 min with 0.01M Tris buffered 0.14M NaCl/0.002M CaCl2 at pH 8.0 (TC buffer), containing 4% w/v BSA and 0.05% v/v Tween 20 (TCBT buffer). The wells were then emptied before adding to each one the following reagents. […] For background, non-specific, non calcium dependent, binding in the presence of EDTA: 5 μl radiolabelled SAP in TN and 45 μl 0.01M Tris buffered 0.14M NaCl at pH 8.0 containing 11.1 mM EDTA, 4.4% w/v BSA and 0.06% w/v Tween 20 (TEBT buffer) to provide final concentrations of EDTA, 10 mM; BSA, 4%; Tween 20, 0.05%. […] All wells were then incubated at room temperature for 2 h before being washed three times with 200 μl volumes of TCBT, allowed to dry for 1 h at room temperature, and bound radiolabelled SAP was then counted. The compounds tested in the experiment shown here were the same as those specified in Example B above.
The capacity of the compounds tested to inhibit binding of SAP to the immobilised influenza virus is expressed as the percentage by which SAP binding was reduced compared to binding in the absence of any inhibitor (Table 3).

Row | SMILES | inhibition at 0.2 µM ([1]; compound 200 nM) | inhibition at 20 µM ([1]; compound 20 μM) | inhibition at 200 µM ([1]; compound 200 μM) | inhibition at 2000 µM ([1]; compound 2 mM) | inhibition at 0.2 µM ([2]; compound 200 nM) | inhibition at 2 µM ([2]; compound 2 μM) | inhibition at 20 µM ([2]; compound 20 μM) | inhibition at 200 µM ([2]; compound 200 μM) | inhibition at 2000 µM ([2]; compound 2 mM) | inhibition at 0.2 µM ([3]; compound 200 nM) | inhibition at 2 µM ([3]; compound 2 μM) | inhibition at 20 µM ([3]; compound 20 μM) | inhibition at 200 µM ([3]; compound 200 μM) | inhibition at 2000 µM ([3]; compound 2 mM) | inhibition at 2 µM ([1]; compound 2 μM) | also measured
1 | Cc1c(OCC(=O)N2CCC[C@@H]2C(=O)O)cccc1OCC(=O)N1CCC[C@@H]1C(=O)O [Ro-64-2848, (R)-1-[[3-[2-[(R)-1-Carboxy-pyrrolidin-1-yl]-2-oxo-ethoxy]-2-methyl-phenoxy]-acetyl]-pyrrolidine-2-carboxylic acid] | – | – | – | – | – | – | – | – | – | – | – | – | – | – | – | Percent inhibition of binding of radiolabelled SAP to immobilized Neisseria meningitidis ([1]; compound 200 nM): 1%; Percent inhibition of binding of radiolabelled SAP to immobilized Neisseria meningitidis ([1]; compound 2 μM): 64%; Percent inhibition of binding of radiolabelled SAP to immobilized Neisseria meningitidis ([1]; compound 20 μM): 93%; Percent inhibition of binding of radiolabelled SAP to immobilized Neisseria meningitidis ([1]; compound 200 μM): 100%; Percent inhibition of binding of radiolabelled SAP to immobilized Neisseria meningitidis ([1]; compound 2 mM): 100%; Percent inhibition of binding of radiolabelled SAP to immobilized native long chromatin ([2]; compound 200 nM): 0%; Percent inhibition of binding of radiolabelled SAP to immobilized native long chromatin ([2]; compound 2 μM): 22%; Percent inhibition of binding of radiolabelled SAP to immobilized native long chromatin ([2]; compound 20 μM): 65%; Percent inhibition of binding of radiolabelled SAP to immobilized native long chromatin ([2]; compound 200 μM): 95%; Percent inhibition of binding of radiolabelled SAP to immobilized native long chromatin ([2]; compound 2 mM): 98%; Percent inhibition of binding of radiolabelled SAP to immobilized influenza virus ([3]; compound 200 nM): 24%; Percent inhibition of binding of radiolabelled SAP to immobilized influenza virus ([3]; compound 2 μM): 65%; Percent inhibition of binding of radiolabelled SAP to immobilized influenza virus ([3]; compound 20 μM): 81%; Percent inhibition of binding of radiolabelled SAP to immobilized influenza virus ([3]; compound 200 μM): 81%; Percent inhibition of binding of radiolabelled SAP to immobilized influenza virus ([3]; compound 2 mM): 85%
2 | O=C(O)[C@H]1CCCN1C(=O)COc1ccccc1OCC(=O)N1CCC[C@@H]1C(=O)O [Ro-63-8593, (R)-1-[[2-[2-[(R)-2-Carboxy-pyrrolidin-1-yl]-2-oxo-ethoxy]-phenoxyl]-acetyl]-pyrrolidine-2-carboxylic acid] | 18% | 87% | 100% | 100% | 7% | 34% | 77% | 89% | 96% | 44% | 68% | 88% | 93% | 94% | – | –
3 | O=C(O)[C@H]1CCCN1C(=O)[C@H]1CC[C@@H](C(=O)N2CCC[C@@H]2C(=O)O)CC1 [Ro-64-2600, (R)-1-[cis-4-[(R)-2-Carboxy-pyrrolidine-1-carbonyl]-cyclohexanecarbonyl]-pyrrolidine-2-carboxylic acid] | 31% | 93% | – | – | 1% | 35% | 67% | 94% | 100% | 0% | 76% | 83% | 89% | 92% | 73% | –
4 | COc1cccc(OCC(=O)N2CCC[C@@H]2C(=O)O)c1OCC(=O)N1CCC[C@@H]1C(=O)O [Ro-64-2845, (R)-1-[[2-[2-[(R)-2-carboxy-pyrrolidin-1-yl]-2-oxo-ethoxy]-3-methoxy-phenoxy]-acetyl]-pyrrolidine-2-carboxylic acid] | 19% | 92% | 93% | – | 11% | – | 75% | 96% | 100% | 16% | 52% | 62% | 77% | 89% | 74% | –
5 | O=C(O)[C@H]1CCCN1C(=O)Cc1ccc(CC(=O)N2CCC[C@@H]2C(=O)O)c2ccccc12 [Ro-64-5607, (R)-1-[[4-[2-[(R)-2-Carboxy-pyrrolidin-1-yl]-2-oxo-ethyl]-naphthalen-1-yl]-acetyl]-pyrrolidine-2-carboxylic acid] | 13% | 89% | – | – | 15% | 35% | 77% | 96% | 100% | 4% | 64% | 95% | 94% | 98% | 69% | –
6 | O=C(O)[C@H]1CCCN1C(=O)Cc1cccc(CC(=O)N2CCC[C@@H]2C(=O)O)c1 [Ro-64-2668, (R)-1-[[3-[2-[(R)-2-Carboxy-pyrrolidin-1-yl]-2-oxo-ethyl]-phenyl]-acetyl]-pyrrolidine-2-carboxylic acid] | 28% | 92% | 100% | 100% | 0% | 18% | 56% | 94% | 98% | 25% | 68% | 73% | 77% | 82% | 64% | –
7 | O=C(O)[C@H]1CCCN1C(=O)Cc1cc(O)c(CC(=O)N2CCC[C@@H]2C(=O)O)cc1O [Ro-64-4383, (R)-1-[[2,5-Dihydroxy-4-[2-[(R)-2-carboxy-pyrrolidin-1-yl]-2-oxo-ethyl]-phenyl]-acetyl]-pyrrolidine-2-carboxylic acid] | 1% | 95% | 100% | 100% | 0% | 45% | 78% | 88% | 97% | 24% | 57% | 80% | 89% | 89% | 76% | –
8 | O=C(O)[C@H]1CCCN1C(=O)Cc1ccc(CC(=O)N2CCC[C@@H]2C(=O)O)cc1 [Ro-63-7777, (R)-1-[[4-[2-[(R)-2-Carboxy-pyrrolidin-1-yl]-2-oxo-ethyl]-phenyl]-acetyl]-pyrrolidine-2-carboxylic acid] | 7% | 73% | 100% | 100% | 4% | 19% | 39% | 66% | 92% | 37% | 65% | 85% | 89% | 89% | 64% | –
